According to patent US9393255B2, “Pharmaceutical compositions of cytidine analogs and methods of use thereof” (Celgene Corporation, priority 2011, dated 2016):
≈ marks a conversion by molar mass, not a printed value. Entries after “also recorded” stand apart in the source; their conditions may differ.

How the values were obtained:
MDS, AML, CML, ALL, NHL = details: treatment of MDS; cited from earlier work
[1] = aqueous degradation kinetics of 5-azacytidine (solution and suspension); format: physicochemical
Procedure: The aqueous degradation kinetics of 5-azacytidine was evaluated. […] At lower temperatures, the degradation of 5-azacytidine is slower.

[2] = cold water reconstitution of Vidaza with frozen storage, Study 2: HPLC assay, redispersion time, appearance (Example G); format: physicochemical; details: reconstituted with refrigerated WFI, stored frozen (−20° C.)
Procedure: The study was performed in a similar fashion as Example F, and the cold water reconstituted suspension was then stored under frozen conditions. […] A study to determine the thawing time of the frozen suspensions at 25° C. was also conducted.
Testing was performed using two lots of homogenized drug product. […] The second study analyzed the reconstituted drug product after storage of reconstituted drug product at −20° C. utilizing hold times of 24, 48, and 72 hours followed by a post hold time of 45 minutes at 25° C. to allow for thawing as determined in the first study.
Analytical Methods: The amount of azacitidine and related impurities contained in azacitidine samples was determined utilizing High Performance Liquid Chromatography (HPLC). Two methods were used to complete this testing. […] Reconstitution and redispersibility times were determined in a manner similar to that as described in Example F. Appearance of the suspension was determined visually. […]
An appropriate number of homogenized azacitidine drug product vials were reconstituted with refrigerated WFI as described above, and placed in a freezer (−20° C.). […] After thawing, the contents of the vials were analyzed, for example, by HPLC. […] In addition to the frozen vials, a set of drug product vials were reconstituted and diluted, and immediately analyzed for use as T0 (baseline). […]

[3] = aqueous solubility of 5-azacytidine; format: physicochemical; details: water
Procedure: In one embodiment, the reconstituted liquid dosage form is allowed to warm to room temperature (e.g., within a period of less than about 30 minutes) before parenteral use. […] In some embodiments, when the dosage form is at room temperature, about one-half of 5-azacytidine is dissolved, with about the other half present as solid in the suspension.
(§1) Generally at lower temperature a smaller amount of 5-azacytidine may be dissolved in water.

higher-risk MDS = details: Phase III, subcutaneous, subjects with higher-risk MDS; cited from earlier work
[4] = stability of 5-azacytidine suspension reconstituted with cold Water for Injection, stored refrigerated or frozen (Example E); format: physicochemical
Procedure: The reconstituted suspension of 5-azacytidine was then stored either refrigerated or frozen.
In one experiment, the suspension was stored at a temperature of between about 2° C. and about 8° C. for up to 72 hours, and then warmed to about 25° C. over a period of about 30 minutes. In another experiment, the suspension was stored at a temperature of about −20° C. for up to 7 days, and then thawed and stored refrigerated for up to 48 hours, and then warmed to about 25° C. over a period of about 30 minutes.
The dry lyophilized powder was stored in the vials under normal conditions for about 48 months prior to use in this experiment.
The contents of the vials were reconstituted with cold Water for Injection. Prior to reconstitution, the Water for Injection was stored refrigerated for at least 24 hours. All vials were reconstituted into an opaque, white suspension within 20 seconds.
The vials were stored at conditions described above for a certain time. The contents of all vials were re-dispersed into an opaque, white suspension within 20 seconds of shaking after each storage conditions or time points described in this example.

[5] = human pharmacokinetics of 5-azacytidine after SC or IV dosing; format: in vivo
[6] = cold water reconstitution of Vidaza with refrigerated storage: potency, redispersibility time, appearance (Example F); format: physicochemical; details: for stability time (not more than 3% loss of potency from Time 0): cold WFI (2-8° C.) reconstitution, refrigerated (2-8° C.) storage
Procedure: Sterility testing was performed at the end of the study. Stability of azacitidine was defined in this study as not more than 3% loss of potency from Time 0 (e.g., baseline).
Analytical methods and stability testing: The potency of azacitidine was determined by quantitating the sample against an external standard utilizing reverse phase chromatography with UV detection, in accordance with ICH guidelines. The determination of suspension appearance for redispersibility time was performed visually, in accordance with ICH guidelines.
Stability testing of azacitidine was performed by utilizing validated regulatory accepted analytical methods in accordance with ICH guidelines. These studies were conducted at conditions which encompass long-term, intermediate and accelerated storage of the drug product over a period of time.
Materials and methods: Two lots of sterile commercial scale azacitidine drug product, each nearing the end of their expiry period of 48 months, were used for the study. Each lot of drug product was prepared as a homogeneous mixture of lyophilized powder and placed in labeled vials in preparation for reconstitution. Vials from each lot of azacitidine drug product were then reconstituted with 4 mL of refrigerated (2-8° C.) WFI and immediately placed in refrigerated storage (2-8° C.). After refrigerated storage for 16, 18, 20, and 22 hours, reconstituted vials of azacitidine were removed from refrigeration and placed at 25° C. for 30 minutes. Equilibration time to 25° C. for refrigerated azacitidine suspension was determined to be 30 minutes. […] Stability of azacitidine was defined in this study as not more than 3% loss of potency from Time 0 (e.g., baseline). Sterility of the refrigerated drug product was assessed for reconstituted vials stored at 2-8° C. at end of study.

pKa of 5-azacytidine = format: physicochemical; details: 25° C.
Text: as §1

leukemic mouse model = experiment: activity and toxicity of degradation products in a leukemic mouse model; format: in vivo

SMILES: Nc1ncn([C@H]2C[C@H](O)[C@@H](CO)O2)c(=O)n1 [5-aza-2′-deoxycytidine]
- anti-tumor activity in clinical trials (MDS, AML, CML, ALL, NHL): significant anti-tumor activity

SMILES: Nc1ncn([C@@H]2O[C@H](CO)[C@@H](O)[C@H]2O)c(=O)n1 [5-azacytidine, 4-amino-1-β-D-ribofuranosyl-1,3,5-triazin-2(1H)-one]
- Degradation Rate ([1]; Solution, 2° C. to 8° C.): 0.7% per hour
- Degradation Rate ([1]; Solution, 25° C.): 2.8% per hour
- Degradation Rate ([1]; Suspension, 2° C. to 8° C.): 0.1% per hour
- Degradation Rate ([1]; Suspension, 25° C.): 2.5% per hour
- anti-tumor activity in clinical trials (MDS, AML, CML, ALL, NHL): significant anti-tumor activity
- stability time under frozen storage [2]: up to 72 hours
- solubility ([3]; 5° C.): ~6.4 mg/mL (≈ 26.2 mM)
- solubility ([3]; 25° C.): ~14 mg/mL (≈ 57.3 mM)
- survival and time to AML transformation or death (higher-risk MDS): significantly prolonged survival and time to AML transformation or death
- degradation on frozen storage ([4]; reconstituted with cold Water for Injection, stored frozen, for at least 7 days): no significant degradation
- Degradation Rate ([4]; suspension reconstituted with cold Water for Injection, stored refrigerated): about 0.12 % w/w per hour
- Cmax for SC dosing ([5]; SC): rapid
- bioavailability ([5]; in vivo, subcutaneous, SC vs IV, read-out: relative bioavailability of SC dose (relative to IV dose)): ~90%
- redispersion time ([6]; 16, 18, 20 and 22 hr refrigerated storage and 30 minutes equilibration to 25° C.): 0.3 min
- appearance of suspension ([6]; 16, 18, 20 and 22 hr refrigerated storage and 30 minutes equilibration to 25° C., listed as Azacitidine): fine white particles in suspension
- appearance of suspension ([6]; 16, 18, 20 and 22 hr refrigerated storage and 30 minutes equilibration to 25° C., listed as azacitidine): fine white particles in suspension and the absence of clumps
- stability time (not more than 3% loss of potency from Time 0) ([6]; listed as Azacitidine): about 22 hours
- stability time (not more than 3% loss of potency from Time 0) ([6]; listed as azacitidine): 22 h
- prolongation of stability time versus usual reconstitution ([6]; cold WFI reconstitution with refrigerated storage, 8 to 22 hours, listed as azacitidine): about a threefold prolongation; also recorded: nearly threefold
- maximum loss of potency ([6]; cold water (2-8° C.) reconstitution, refrigerated storage baseline to 22 hr, 30 minutes equilibration to 25° C., each of the two lots): 2.7%
- pKa (pKa of 5-azacytidine; higher of the two pKa values): ~10.2
- pKa (pKa of 5-azacytidine; lower of the two pKa values): ~2.8

SMILES: N=C(NC=O)NC(=O)N[C@@H]1O[C@H](CO)[C@@H](O)[C@H]1O [primary degradation product, N-formylguanyribosylurea]
- activity relative to 5-azacytidine (leukemic mouse model; dosed at about 240 mg/m^2): about 25%
- toxicity relative to 5-azacytidine (leukemic mouse model; dosed at about 240 mg/m^2): about 25%

SMILES: NC(N)=NC(=O)N[C@@H]1O[C@H](CO)[C@@H](O)[C@H]1O [secondary degradation product, guanylribosylurea]
- activity (leukemic mouse model; dosed at 1440 mg/m^2): neither activity nor toxicity
- toxicity (leukemic mouse model; dosed at 1440 mg/m^2): neither activity nor toxicity
